# Laboratory results as given in PMC7782499, “Progerinin, an optimized progerin-lamin A binding inhibitor, ameliorates premature senescence phenotypes of Hutchinson-Gilford progeria syndrome” (Communications Biology, 2021).
# Values joined by “and” are separate entries in the source; they are usually repeats but may differ in a detail not shown here. Equal values may be shown once.
# Tests used:
# [1] = Plasma protein binding, rat; format: in vitro ADME
# Method: (§1) At pre-set time-points, blood concentration of JH4 was determined by LC-MS/MS analysis[22],[23]. Other chemicals were also tested using similar protocol. In vitro ADME studies (plasma protein binding, CYP inhibition, microsomal stability, plasma stability, and hERG inhibition) were performed by New Drug Development Center (Daegu, Korea) using standard protocols[24],[25].
# [2] = Liver microsomal stability, human; format: in vitro ADME; details: liver microsomes, read-out: Liver microsomal stability (% remaining during 30min)
# Method: as §1
# [3] = Liver microsomal stability, rat; format: in vitro ADME; details: liver microsomes, read-out: Liver microsomal stability (% remaining during 30min)
# Method: as §1, with “For PK analysis, 5 mg/kg of JH4 in 10% DMSO, 5% […] solution were intravenously injected and 10 mg/kg of JH4 in 10% NMP and 90% PEG400 solution were orally delivered. At” for “At”
# CYP2C9 = CYP2C9 (Homo sapiens, UniProt P11712); experiment: CYP inhibition, CYP2C9; format: in vitro ADME; design: unit not given here
# Method: as §1
# CYP2D6 = CYP2D6 (Homo sapiens, UniProt P10635); experiment: CYP inhibition, CYP2D6; format: in vitro ADME
# Method: as §1
# Lmna G609G/+ mouse = experiment: Heart rate (electrocardiographic analysis); format: in vivo; details: LMNA G609G/+ mice, SLC-D011 for 6 weeks
# Description: Fig. 4 Oral administration of SLC-D011 suppresses premature aging features. A Gross morphology of SLC-D011-treated (D011) mice at 8 weeks old. Body size of treated mouse was apparently larger than that of the untreated control (Con) mouse. B Oral administration of SLC-D011 increases body weights of Lmna^G609G/G609G mice. Compared with untreated control group, body weight of treated mouse was increased by ~35%, *p < 0.05. C Oral administration of SLC-D011 extends the life span of Lmna^G609G/G609G mouse. SLC-D011 in monoolein-based solution was treated by oral gavage (50 mg/kg, daily) from 5 weeks old. […] E Grip test of Lmna^G609G/+ mice at 41-week-old was performed after administration of SLC-D011 for 6 weeks. The test was repeated 10 times for each mouse (n > 4), **p < 0.001. Data are presented as mean ± SD. […] H Anti-aging effects of single treatment of SLC-D011 or lonafarnib were measured in HGPS patients-derived cells (AG11513, AG03199, AG11498, and AG03198, Coriell Cell Repositories). […] No unit is printed with them; the x axis reads Age (weeks). / Panel C: Ave=16.8 / Max=18 are printed beside the dashed curve of the control (Con). […]
# For analysis of heart rate, mice were anesthetized with 2.5% isoflurane and monitored using LOGIQ E9 (GE Healthcare). […] Each estimate given corresponded to total reads measured ten times, excluding the minimum and the maximum from each group of animals.
# Chain of CYP2C9 (P11712 whole entry): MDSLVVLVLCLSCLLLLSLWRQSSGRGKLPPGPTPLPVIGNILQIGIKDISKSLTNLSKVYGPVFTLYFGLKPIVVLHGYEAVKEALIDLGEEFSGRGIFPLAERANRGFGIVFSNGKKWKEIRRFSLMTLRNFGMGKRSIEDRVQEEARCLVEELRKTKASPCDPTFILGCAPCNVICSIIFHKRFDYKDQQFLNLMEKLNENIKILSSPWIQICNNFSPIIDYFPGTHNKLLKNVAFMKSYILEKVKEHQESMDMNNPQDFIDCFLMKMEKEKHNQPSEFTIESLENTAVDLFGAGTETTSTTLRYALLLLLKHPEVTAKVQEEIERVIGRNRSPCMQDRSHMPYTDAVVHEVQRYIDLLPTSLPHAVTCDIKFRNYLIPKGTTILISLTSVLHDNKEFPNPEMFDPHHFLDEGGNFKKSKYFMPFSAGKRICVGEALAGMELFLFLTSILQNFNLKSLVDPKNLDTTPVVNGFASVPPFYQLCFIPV
# Chain of CYP2D6 (P10635 whole entry): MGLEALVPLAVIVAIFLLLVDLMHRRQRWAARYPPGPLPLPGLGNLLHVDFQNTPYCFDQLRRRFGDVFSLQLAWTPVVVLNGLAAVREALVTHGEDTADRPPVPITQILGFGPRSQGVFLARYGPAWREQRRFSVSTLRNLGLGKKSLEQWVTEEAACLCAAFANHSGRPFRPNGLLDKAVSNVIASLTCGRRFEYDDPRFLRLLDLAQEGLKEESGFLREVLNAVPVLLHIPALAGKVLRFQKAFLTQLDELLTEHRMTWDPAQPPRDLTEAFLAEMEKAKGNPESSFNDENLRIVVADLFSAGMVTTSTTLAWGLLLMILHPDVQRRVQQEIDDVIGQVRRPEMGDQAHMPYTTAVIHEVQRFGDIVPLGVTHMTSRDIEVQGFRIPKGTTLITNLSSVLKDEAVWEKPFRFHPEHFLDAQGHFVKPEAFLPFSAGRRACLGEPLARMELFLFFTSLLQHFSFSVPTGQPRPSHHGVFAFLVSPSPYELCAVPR
smiles,measurement,setting,value
CC1(C)Oc2cc3oc(=O)ccc3cc2C[C@@H]1OC/C=C/c1ccccc1 [SLC-D011],fraction unbound,[1],0.002
same,remaining at 0.5 h,[2],21.5%
same,remaining at 0.5 h,[3],17.4%
same,CYP inhibition,CYP2C9,78.4
same,CYP inhibition,CYP2D6,91.7
same,Heart rate,Lmna G609G/+ mouse,462 bmp and 447 bmp and 432 bmp and 454 bmp
